{"source": "paper PMC5404377", "about": "(Bioorganic & medicinal chemistry letters, 2016)", "key": {"hMOR": {"target": "hMOR (Homo sapiens, UniProt P35372)", "sequence (P35372 whole entry)": "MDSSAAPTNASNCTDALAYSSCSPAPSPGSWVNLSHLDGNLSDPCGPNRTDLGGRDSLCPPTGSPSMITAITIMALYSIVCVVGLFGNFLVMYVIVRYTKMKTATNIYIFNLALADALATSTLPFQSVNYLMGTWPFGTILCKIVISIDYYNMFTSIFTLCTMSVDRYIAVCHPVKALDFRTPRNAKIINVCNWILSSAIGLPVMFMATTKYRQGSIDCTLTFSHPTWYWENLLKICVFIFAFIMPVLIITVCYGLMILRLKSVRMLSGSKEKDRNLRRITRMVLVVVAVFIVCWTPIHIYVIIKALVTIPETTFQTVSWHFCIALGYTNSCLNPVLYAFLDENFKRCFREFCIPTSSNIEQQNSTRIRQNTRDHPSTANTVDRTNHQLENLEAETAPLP", "settings": "read-out: Ki (nM) MOR; literature value; ref [14]; cited from earlier work"}, "hKOR": {"target": "hKOR (Homo sapiens, UniProt P41145)", "sequence (P41145 whole entry)": "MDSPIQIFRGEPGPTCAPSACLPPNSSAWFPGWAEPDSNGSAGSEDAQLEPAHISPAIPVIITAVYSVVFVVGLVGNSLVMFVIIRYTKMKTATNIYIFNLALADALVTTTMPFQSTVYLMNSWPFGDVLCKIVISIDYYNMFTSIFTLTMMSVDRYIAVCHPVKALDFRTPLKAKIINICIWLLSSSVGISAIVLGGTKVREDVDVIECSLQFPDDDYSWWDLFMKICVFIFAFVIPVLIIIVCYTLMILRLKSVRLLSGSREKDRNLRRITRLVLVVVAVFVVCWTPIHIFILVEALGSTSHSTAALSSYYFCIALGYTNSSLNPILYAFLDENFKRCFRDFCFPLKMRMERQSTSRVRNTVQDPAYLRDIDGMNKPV", "settings": "read-out: Ki (nM) KOR; literature value; ref [14]; cited from earlier work"}, "MOR": {"target": "MOR (Rattus norvegicus, UniProt P33535)", "sequence (P33535 whole entry)": "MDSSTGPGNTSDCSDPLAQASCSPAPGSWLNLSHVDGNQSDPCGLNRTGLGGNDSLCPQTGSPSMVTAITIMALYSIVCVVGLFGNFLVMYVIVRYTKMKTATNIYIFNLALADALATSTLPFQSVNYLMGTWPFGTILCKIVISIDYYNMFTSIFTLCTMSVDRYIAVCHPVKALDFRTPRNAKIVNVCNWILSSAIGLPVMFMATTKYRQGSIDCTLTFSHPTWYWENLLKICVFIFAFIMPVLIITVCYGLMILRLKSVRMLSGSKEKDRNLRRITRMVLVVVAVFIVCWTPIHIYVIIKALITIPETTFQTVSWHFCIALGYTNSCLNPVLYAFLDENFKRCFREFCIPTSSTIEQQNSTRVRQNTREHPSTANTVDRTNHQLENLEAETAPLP", "experiment": "[35S]GTPγS assay, agonist efficacy at MOR", "assay_type": "biochemical", "settings": "for MOR functional profile: [35S]GTPγS; for Emax: read-out: MOR %Emax"}, "DOR": {"target": "DOR (Rattus norvegicus, UniProt P33533)", "sequence (P33533 whole entry)": "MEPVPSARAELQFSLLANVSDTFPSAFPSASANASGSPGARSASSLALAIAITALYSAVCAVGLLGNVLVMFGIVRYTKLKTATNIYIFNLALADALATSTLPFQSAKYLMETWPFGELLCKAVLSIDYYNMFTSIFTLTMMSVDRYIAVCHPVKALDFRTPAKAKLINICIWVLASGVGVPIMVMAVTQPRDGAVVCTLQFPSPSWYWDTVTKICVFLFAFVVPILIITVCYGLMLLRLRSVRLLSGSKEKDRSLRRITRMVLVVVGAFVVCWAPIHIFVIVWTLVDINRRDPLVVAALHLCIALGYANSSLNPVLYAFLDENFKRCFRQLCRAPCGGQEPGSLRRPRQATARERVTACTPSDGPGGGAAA", "experiment": "[35S]GTPγS assay, agonist efficacy at DOR", "assay_type": "biochemical", "settings": "for agonist activity at DOR: [35S]GTPγS"}, "Male Swiss-Webster mice [1]": {"system": "Male Swiss-Webster mice", "experiment": "Hot plate nociception test", "assay_type": "in vivo", "settings": "mouse"}, "Male Swiss-Webster mice [2]": {"system": "Male Swiss-Webster mice", "experiment": "Tail-flick nociceptive test", "assay_type": "in vivo", "settings": "mouse"}}, "data": [{"smiles": "O=C1/C(=C/c2ccccc2)C[C@@]2(O)[C@H]3Cc4ccc(O)c5c4[C@@]2(CCN3CC2CC2)[C@H]1O5", "note": "[BNTX, benzylidenenaltrexone]", "values": [{"measurement": "Ki", "setting": "hMOR", "result": 26, "unit": "nM"}, {"measurement": "Ki", "setting": "hKOR", "result": 48, "unit": "nM"}]}, {"smiles": "CN1CC[C@]23c4c5ccc(O)c4O[C@H]2C(=O)/C(=C/c2ccccc2)C[C@@]3(O)[C@H]1C5", "note": "[Compound 6, 7-benzylideneoxymorphone]", "values": [{"measurement": "EC50", "setting": "MOR", "result": "72 ± 11", "unit": "nM"}, {"measurement": "MOR functional profile", "setting": "MOR", "result": "partial agonists"}, {"measurement": "Emax", "setting": "MOR", "result": "39 ± 1.3", "unit": "%"}, {"measurement": "agonist activity at DOR", "setting": "DOR", "result": "no significant agonist activity"}, {"measurement": "hot plate antinociception compared to saline control", "setting": "Male Swiss-Webster mice [1]; 50 mg/kg s.c., at 30 min (p<0.05)", "result": "significantly greater antinociception"}, {"measurement": "hot plate antinociception compared to saline control", "setting": "Male Swiss-Webster mice [1]; 60 mg/kg s.c., at 30 (p<0.01), 50 (p<0.001), 70 (p<0.05) min", "result": "significantly greater antinociception"}, {"measurement": "Emax, hot plate antinociception", "setting": "Male Swiss-Webster mice [1]; s.c., increasing doses 20-60 mg/kg", "result": "approximately 40 % MPE"}, {"measurement": "tail-flick antinociception compared to saline control", "setting": "Male Swiss-Webster mice [2]; 50 mg/kg s.c., at 70 min (p<0.01)", "result": "significantly greater antinociception"}, {"measurement": "tail-flick antinociception compared to saline control", "setting": "Male Swiss-Webster mice [2]; 60 mg/kg s.c., at 30 (p<0.001), 50 (p<0.01), 70 (p<0.01) min", "result": "significantly greater antinociception"}, {"measurement": "time of peak antinociception effects, tail-flick", "setting": "Male Swiss-Webster mice [2]; 60 mg/kg s.c., post-administration", "result": 30, "unit": "min"}]}, {"smiles": "O=C1/C(=C/c2ccccc2)C[C@@]2(O)[C@H]3Cc4ccc(O)c5c4[C@@]2(CCN3CCc2ccccc2)[C@H]1O5", "note": "[Compound 7]", "values": [{"measurement": "MOR functional profile", "setting": "MOR", "result": "partial agonists"}, {"measurement": "Emax", "setting": "MOR", "result": "52 ± 3.8", "unit": "%"}, {"measurement": "agonist activity at DOR", "setting": "DOR", "result": "no significant agonist activity"}, {"measurement": "Emax", "setting": "DOR; read-out: DOR %Emax", "result": "< 10", "unit": "%"}]}, {"smiles": "O=C1/C(=C/c2ccccc2)C[C@@]2(O)[C@H]3Cc4ccc(O)c5c4[C@@]2(CCN3CCCc2ccccc2)[C@H]1O5", "note": "[Compound 8]", "values": [{"measurement": "Emax", "setting": "MOR", "result": "< 10", "unit": "%"}]}]}
